According to patent publication US9487489B2, “Halogen-substituted pyrazole derivatives as pest-control agents” (BAYER CROPSCIENCE AKTIENGESELLSCHAFT, priority 2013, dated 2016):

Columns and labels:
[1] = test system: southern root-knot nematode (Meloidogyne incognita); assay: Meloidogyne incognita test (MELGIN); assay type: in vivo; conditions: application rate 20 ppm; lettuce; after 14 days
Description: K. Meloidogyne incognita Test (MELGIN)
Solvent: 125.0 parts by weight of acetone
To prepare a suitable active compound preparation, 1 part by weight of active compound is mixed with the stated amount of solvent and the concentrate is diluted with water to the desired concentration.
Vessels are filled with sand, active compound solution, an egg/larvae suspension of the southern root-knot nematode (Meloidogyne incognita) and lettuce seeds. The lettuce seeds germinate and the plants develop. On the roots, galls are formed.
After 14 days, the nematicidal efficacy in % is determined by the formation of galls. 100% means that no galls have been found; 0% means that the number of galls on the treated plants corresponds to the untreated control.

[2] = logP determination by HPLC on a reversed-phase column (C18), EEC Directive 79/831 Annex V.A8; assay type: physicochemical; conditions: HPLC on reversed-phase column (C18), acetonitrile/water with formic acid, EEC Directive 79/831 Annex V.A8
In short: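 Retention on a C18 reversed-phase column (Zorbax Eclipse Plus, 1.8 micron) was used, eluting with acetonitrile/water, each containing formic acid. The gradient ran from 10% to 95% acetonitrile over 4.25 min, then held 1.25 min, at 55° C and 2.0 ml/min, with MS detection.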

[3] = test system: green peach aphid (Myzus persicae); assay: Myzus persicae spray test (MYZUPE); assay type: in vivo; conditions: application rate 500 g/ha; Chinese cabbage leaf discs; after 6 days
In short: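 Chinese cabbage leaf discs infested with all aphid stages sprayed with compound in acetone/DMF with alkylaryl polyglycol ether emulsifier in water. Efficacy (% aphids killed; 100% all dead, 0% none) scored after 6 days.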

[4] = test system: engorged adult female cattle ticks (Boophilus microplus); assay: Boophilus microplus injection test (BOOPMI Inj); assay type: in vivo; conditions: application rate 20 μg/animal; injection into abdomen; assessed after 7 days
In short: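 DMSO solution of compound (1 μl) injected into the abdomen of 5 engorged adult female ticks, which are then held in a climate-controlled room. After 7 days, efficacy is scored from laying of fertile eggs, with unclear eggs kept until larval hatch (~42 days); 100% means no fertile eggs, 0% all fertile.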

[5] = test system: adult houseflies (Musca domestica); assay: Musca domestica test (MUSCDO); assay type: in vivo; conditions: application rate 100 ppm; after 2 days
In short: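 Compound dissolved in DMSO and diluted with water to the test concentration, applied with sugar solution on a sponge; 10 adult houseflies per vessel. Mortality scored after 2 days as % kill (100% all dead, 0% none).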

[6] = test system: adult cat fleas (Ctenocephalides felis); assay: Ctenocephalides felis in vitro contact test with adult cat fleas (T1); conditions: after 48 h
In short: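 Test compound was dissolved in acetone p.a. (9 mg per 1 ml) and diluted as needed. 250 μl was spread evenly over the inner walls and floor of a 25 ml test tube by rotating on an orbital shaker for 2 h at 30 rpm. Once the solvent evaporated, 5-10 adult Ctenocephalides felis were added. Tubes were capped with a perforated plastic lid and kept horizontal at room temperature and ambient humidity.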

[7] = test system: larvae of the mustard beetle (Phaedon cochleariae); assay: Phaedon cochleariae spray test (PHAECO); assay type: in vivo; conditions: Chinese cabbage leaf discs, after 7 days
In short: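 Compound dissolved in acetone/dimethylformamide with alkylaryl polyglycol ether emulsifier, made up in water containing 1000 ppm emulsifier, then diluted to test concentrations and sprayed against mustard beetle larvae. Efficacy (% larvae killed) scored after 7 days.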

[8] = test system: adult castor bean ticks (Ixodes ricinus); assay: Ixodes ricinus in vitro contact test with adult castor bean ticks (T3); conditions: application rate 5 μg/cm^2; after 48 h
Description: T3. Ixodes ricinus-in vitro Contact Tests with Adult Castor Bean Ticks
For the coating of the test tubes, initially 9 mg of active compound are dissolved in 1 ml of acetone p.a. and then diluted with acetone p.a. to the desired concentration. By turning and rocking on an orbital shaker (2 h of rocking rotation at 30 rpm), 250 μl of the solution are distributed homogeneously on the internal walls and the floor of a 25 ml test tube. At 900 ppm active compound solution and 44.7 cm^2 internal surface, an area dose of 5 μg/cm^2 is achieved for homogeneous distribution.
After evaporation of the solvent, the tubes are populated with 5-10 adult castor bean ticks (Ixodes ricinus), sealed with a perforated plastic lid and incubated in a horizontal position in the dark at 22° C. and 90% humidity in a climate-controlled cabinet. After 48 h, the efficacy is determined. To this end, the ticks are knocked to the floor of the tube and incubated on a hotplate at 45-50° C. for at most 5 min. Ticks which remain motionless on the floor or move in an uncoordinated manner such that they are not able to deliberately avoid the heat by climbing upwards are considered to be dead or moribund.
An efficacy of 100% means that all ticks were dead or moribund. 0% efficacy means that none of the ticks had been damaged.

[9] = test system: L1 larvae of the Australian sheep blowfly (Lucilia cuprina); assay: Lucilia cuprina test (LUCICU); assay type: in vivo; conditions: application rate 100 ppm; after 2 days
In short: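 About 20 L1 larvae placed in a vessel with minced horsemeat plus compound (DMSO concentrate diluted with water to the desired concentration). Kill in % scored after 2 days, 100% meaning all larvae dead.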

[10] = test system: cattle ticks (Boophilus microplus) Parkhurst strain, SP-resistant; assay: Boophilus microplus dip test (BOOPMI Dip); assay type: in vivo; conditions: application rate 100 ppm, assessed after 7 days
In short: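 Adult engorged female SP-resistant Parkhurst ticks (8–10) were fully immersed in compound diluted in water from a DMSO solution, then kept in a climate-controlled room. After 7 days, fertile egg-laying was scored, with larval hatching checked at about 42 days; 100% efficacy means no fertile eggs.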

[11] = test system: Tick nymphs (Amblyomma hebraeum); assay: Amblyomma hebraeum test (AMBYHE), tick nymphs immersed; assay type: in vivo; conditions: application rate 100 ppm; immersed one minute; after 42 days
Description: A. Amblyomma hebaraeum Test (AMBYHE)
Solvent: dimethyl sulphoxide
To produce a suitable preparation of active compound, 10 mg of active compound are mixed with 0.5 ml of dimethyl sulfoxide, and the concentrate is diluted with water to the desired concentration.
Tick nymphs (Amblyomma hebraeum) are placed into perforated plastic beakers and immersed in the desired concentration for one minute. The ticks are transferred on filter paper into a Petri dish and stored in a climate-controlled cabinet.
After 42 days, the kill in % is determined. 100% means that all of the ticks have been killed; 0% means that none of the ticks have been killed.

[12] = test system: caterpillars of the armyworm (Spodoptera frugiperda); assay: Spodoptera frugiperda spray test (SPODFR); assay type: in vivo; conditions: maize leaf discs, after 7 days
In short: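 Maize leaf discs sprayed with compound in acetone/DMF with alkylaryl polyglycol ether emulsifier (1000 ppm) in water, dried, then infested with armyworm caterpillars. Mortality (%) scored after 7 days; 100% = all caterpillars killed, 0% = none killed.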

[13] = test system: bont tick nymphs (Amblyomma hebraeum); conditions: after 48 h
[14] = test system: adult cat fleas (Ctenocephalides felis); assay: Ctenocephalides felis oral test (CTECFE); assay type: in vivo; conditions: application rate 100 ppm in citrated cattle blood; after 2 days
In short: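 About 20 unfed adult cat fleas fed through parafilm membrane on citrated cattle blood containing compound (DMSO stock diluted in blood to test concentration). Kill % scored after 2 days (100% = all fleas dead).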

[15] = test system: adult dog ticks (Rhipicephalus sanguineus); assay: Rhipicephalus sanguineus in vitro contact test with adult brown dog ticks (T2); conditions: after 48 h
In short: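 Acetone solutions coated onto test tube walls and floor, giving 5 μg/cm^2 at 900 ppm. Five to ten adult ticks held per tube in the dark at room temperature for 48 h, then heated at 45-50° C for up to 5 min; efficacy is the percentage of dead or moribund ticks unable to climb away.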

[16] = test system: greenhouse red spider mite (Tetranychus urticae); assay: Tetranychus urticae spray test, OP-resistant (TETRUR); assay type: in vivo; conditions: bean leaf discs, after 6 days
In short: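 Bean leaf discs carrying all stages of OP-resistant Tetranychus urticae were sprayed with compound formulated in acetone/dimethylformamide and diluted in water with 1000 ppm alkylaryl polyglycol ether emulsifier. Mortality (% efficacy, 100% = all mites killed) scored after 6 days.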

Cn1nc(C(F)(F)C(F)(F)F)c(C(F)(F)F)c1-n1cc(-c2ccc(Cl)c(C(=O)NS(C)(=O)=O)c2)cn1 [Ic-26]
3.58: logP [2]
90%: nematicidal efficacy in % (formation of galls) [1]

Cn1nc(C(F)(F)C(F)(F)F)c(C(F)(F)F)c1-n1cc(-c2cc(F)c(F)c(C(=O)NC3(C#N)CC3)c2)cn1 [Ic-47]
100%: efficacy in % [3] | efficacy (laying of fertile eggs) [4] | efficacy (kill in %) [5] | efficacy (dead or moribund fleas) ([6]; application rate 1 μg/cm^2) | efficacy (dead or moribund fleas) ([6]; application rate 5 μg/cm^2) | efficacy in % ([7]; application rate 500 g/ha) | efficacy (dead or moribund ticks) [8] | efficacy (kill in %) [9] | efficacy (laying of fertile eggs) [10] | efficacy (kill in %) [11] | efficacy in % ([12]; application rate 500 g/ha) | efficacy (dead or moribund ticks) [13] | efficacy (kill in %) [14] | efficacy (dead or moribund ticks) ([15]; application rate 1 μg/cm^2) | efficacy (dead or moribund ticks) ([15]; application rate 5 μg/cm^2)

Cn1nc(C(F)(F)C(F)(F)F)c(C(F)(F)F)c1-n1cc(-c2cnc(Cl)c(C(=O)NC3(C#N)CC3)c2)cn1 [Ic-83]
100%: efficacy (laying of fertile eggs) [4] | efficacy (kill in %) [5] | efficacy (dead or moribund fleas) ([6]; application rate 1 μg/cm^2) | efficacy (dead or moribund fleas) ([6]; application rate 5 μg/cm^2) | efficacy in % ([7]; application rate 100 g/ha) | efficacy (dead or moribund ticks) [8] | efficacy (kill in %) [9] | efficacy (laying of fertile eggs) [10] | efficacy (kill in %) [11] | efficacy in % ([12]; application rate 100 g/ha) | efficacy (dead or moribund ticks) [13] | efficacy (kill in %) [14] | efficacy (dead or moribund ticks) ([15]; application rate 1 μg/cm^2) | efficacy (dead or moribund ticks) ([15]; application rate 5 μg/cm^2) | efficacy in % ([16]; application rate 100 g/ha)

Cn1nc(C(F)(F)C(F)(F)F)c(C(F)(F)F)c1-n1cc(-c2cc(Cl)c(Cl)c(C(=O)NC3(C#N)CC3)c2)cn1 [Ic-95]
100%: efficacy (laying of fertile eggs) [4] | efficacy (kill in %) [5] | efficacy (dead or moribund fleas) ([6]; application rate 1 μg/cm^2) | efficacy (dead or moribund fleas) ([6]; application rate 5 μg/cm^2) | efficacy in % ([7]; application rate 500 g/ha) | efficacy (kill in %) [9] | efficacy (laying of fertile eggs) [10] | efficacy (kill in %) [11] | efficacy in % ([12]; application rate 500 g/ha) | efficacy (dead or moribund ticks) [13] | efficacy (kill in %) [14] | efficacy (dead or moribund ticks) ([15]; application rate 1 μg/cm^2) | efficacy (dead or moribund ticks) ([15]; application rate 5 μg/cm^2) | efficacy in % ([16]; application rate 500 g/ha)
90%: efficacy in % [3]

CSCC1CCC1NC(=O)c1cc(-c2cnn(-c3c(C(F)(F)F)c(C(F)(F)C(F)(F)F)nn3C)c2)ccc1Cl (stereo not drawn) [Ic-120]
4.56: logP [2]
83%: efficacy in % ([7]; application rate 100 g/ha)
90%: nematicidal efficacy in % (formation of galls) [1]
100%: efficacy in % ([16]; application rate 100 g/ha)

CNC(=O)c1cc(-c2cnn(-c3c(C(F)(F)F)c(C(F)(F)C(F)(F)F)nn3C)c2)ccc1Cl [Ic-152]
100%: efficacy in % [3] | efficacy (laying of fertile eggs) [4] | efficacy (kill in %) [5] | nematicidal efficacy in % (formation of galls) [1] | efficacy (dead or moribund fleas) ([6]; application rate 1 μg/cm^2) | efficacy (dead or moribund fleas) ([6]; application rate 5 μg/cm^2) | efficacy in % ([7]; application rate 500 g/ha) | efficacy (kill in %) [9] | efficacy (laying of fertile eggs) [10] | efficacy in % ([12]; application rate 500 g/ha) | efficacy (kill in %) [14] | efficacy (dead or moribund ticks) ([15]; application rate 1 μg/cm^2) | efficacy (dead or moribund ticks) ([15]; application rate 5 μg/cm^2) | efficacy in % ([16]; application rate 500 g/ha)

Cn1nc(C(F)(F)C(F)(F)F)c(C(F)(F)F)c1-n1cc(-c2ccc(Cl)c(C(=O)NCC(N)=O)c2)cn1 [Ic-156]
100%: efficacy in % ([7]; application rate 500 g/ha) | efficacy in % ([12]; application rate 500 g/ha) | efficacy (kill in %) [14] | efficacy in % ([16]; application rate 500 g/ha)
90%: efficacy in % [3] | efficacy (laying of fertile eggs) [4] | nematicidal efficacy in % (formation of galls) [1]
